# Measured values from patent US9045482B2, “Pyrido[4,3-B]indoles and methods of use” (Medivation Technologies, Inc., priority 2009, dated 2015).
# Columns and labels:
# [1] = target: human recombinant histamine H1 receptor (Homo sapiens, UniProt P35367); test: Histamine H1 radioligand binding ([3H]Pyrilamine); conditions: read-out: Binding data (Percentage Inhibition) Histamine Binding H1
# Method: To evaluate in radioligand binding assays the activity of compounds of the invention, human recombinant histamine H1 receptor expressed in Chinese hamster ovary (CHO) cells [De Backer, M. et al., Biochem. Biophys. Res. Comm. (1993), 197(3):1601] in a modified Tris-HCl buffer (50 mM Tris-HCl, pH 7.4, 2 mM MgCl2, 100 mM NaCl, 250 mM Sucrose) was used. Compounds of the invention were incubated with 1.2 nM [^3H]Pyrilamine for 180 min at 25° C. Non-specific binding was estimated in the presence of 1 μM pyrilamine. Receptor proteins were filtered and washed, the filters were then counted to determine [^3H]Pyrilamine specifically bound. Compounds were screened at 1 μM or lower, using 1% DMSO as vehicle. Biochemical assay results are presented as the percent inhibition of specific binding in Table 2.
# [2] = target: T1, human recombinant adrenergic α1D receptor (Homo sapiens, UniProt P25100); test: Adrenergic α1D radioligand binding ([3H]Prozosin)
# T1 construct: expressed in transfected cells; host or cells: human embryonic kidney (HEK-293) cells
# T1 sequence (P25100 1-572): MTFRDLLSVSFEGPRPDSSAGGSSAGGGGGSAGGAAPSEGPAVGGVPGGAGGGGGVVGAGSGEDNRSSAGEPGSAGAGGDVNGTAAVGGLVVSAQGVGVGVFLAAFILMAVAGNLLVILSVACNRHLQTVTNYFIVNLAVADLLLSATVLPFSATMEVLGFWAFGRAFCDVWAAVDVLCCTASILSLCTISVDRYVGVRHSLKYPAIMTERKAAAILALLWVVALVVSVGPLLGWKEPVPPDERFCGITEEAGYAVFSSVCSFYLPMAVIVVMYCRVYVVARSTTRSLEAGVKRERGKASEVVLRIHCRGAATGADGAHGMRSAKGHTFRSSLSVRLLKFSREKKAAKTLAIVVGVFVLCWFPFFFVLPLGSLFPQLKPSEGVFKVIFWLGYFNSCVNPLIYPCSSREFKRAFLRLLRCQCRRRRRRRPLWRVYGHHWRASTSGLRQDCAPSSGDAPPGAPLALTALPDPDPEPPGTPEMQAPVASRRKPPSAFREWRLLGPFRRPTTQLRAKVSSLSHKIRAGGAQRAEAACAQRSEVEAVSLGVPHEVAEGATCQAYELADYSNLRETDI
# Method: Compounds of invention were incubated with 0.6 nM [^3H]Prozosin for 60 min at 25° C. Non-specific binding was estimated in the presence of 10 μM phentolamine. Receptor proteins were filtered and washed, the filters were then counted to determine [^3H]Prozosin specifically bound. Compounds were screened at 1 μM or lower, using 1% DMSO as vehicle. Compounds of the invention were tested in this biochemical assay. Biochemical assay results for representative compounds were presented as the percent inhibition of specific binding in Table 3.
# [3] = target: T2, human recombinant serotonin (5-Hydroxytryptamine) 5-HT2C receptor (Homo sapiens, UniProt P28335); test: Serotonin 5-HT2C radioligand binding ([3H]Mesulergine)
# T2 construct: expressed in transfected cells; host or cells: Chinese hamster ovary (CHO-K1) cells
# T2 sequence (P28335 33-458): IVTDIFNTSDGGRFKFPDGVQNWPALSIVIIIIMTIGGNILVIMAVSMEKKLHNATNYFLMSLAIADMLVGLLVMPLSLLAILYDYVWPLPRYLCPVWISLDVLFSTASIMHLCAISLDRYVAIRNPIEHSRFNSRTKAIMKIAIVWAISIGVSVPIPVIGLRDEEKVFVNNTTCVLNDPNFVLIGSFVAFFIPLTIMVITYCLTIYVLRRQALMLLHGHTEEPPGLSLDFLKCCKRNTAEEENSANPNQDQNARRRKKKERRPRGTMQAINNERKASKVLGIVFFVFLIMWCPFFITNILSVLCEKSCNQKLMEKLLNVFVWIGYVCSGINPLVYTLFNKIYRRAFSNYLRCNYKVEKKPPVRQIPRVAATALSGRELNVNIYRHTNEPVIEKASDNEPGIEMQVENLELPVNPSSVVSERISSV
# Method: (1997), 69:1449] in a modified Tris-HCl buffer (50 mM Tris-HCl, pH 7.4, 0.1% Ascorbic Acid, 10 μM Pargyline) was used. Compounds of the invention were incubated with 1 nM [^3H]Mesulergine for 60 min at 25° C. Non-specific binding was estimated in the presence of 1 μM Mianserin. Receptor proteins were filtered and washed, the filters were then counted to determine [^3H]Mesulergine specifically bound. Compounds were screened at 1 μM or lower, using 1% DMSO as vehicle. Biochemical assay results are presented as the percent inhibition of specific binding in Table 4.
# [4] = target: T3, human recombinant serotonin (5-Hydroxytryptamine) 5-HT6 receptor (Homo sapiens, UniProt P50406); test: Serotonin 5-HT6 radioligand binding ([3H]LSD)
# T3 construct: expressed in transfected cells; host or cells: human HeLa cells
# T3 sequence (P50406 whole entry): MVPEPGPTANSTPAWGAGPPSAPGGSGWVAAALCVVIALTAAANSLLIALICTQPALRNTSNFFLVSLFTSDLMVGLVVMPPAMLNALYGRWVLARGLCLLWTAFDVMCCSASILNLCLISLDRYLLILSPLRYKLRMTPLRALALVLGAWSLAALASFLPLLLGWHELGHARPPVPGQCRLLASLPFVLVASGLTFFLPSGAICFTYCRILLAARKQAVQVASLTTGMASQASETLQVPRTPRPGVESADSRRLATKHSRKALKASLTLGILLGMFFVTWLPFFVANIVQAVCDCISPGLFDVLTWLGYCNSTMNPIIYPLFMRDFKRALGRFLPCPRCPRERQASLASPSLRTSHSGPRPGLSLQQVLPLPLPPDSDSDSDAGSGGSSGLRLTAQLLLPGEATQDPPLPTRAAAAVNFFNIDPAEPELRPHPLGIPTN
# Method: Compounds of the invention were incubated with 1.5 nM [3H]Lysergic acid diethylamide (LSD) for 120 min at 37° C. […] Receptor proteins were filtered and washed, the filters were then counted to determine [3H]LSD specifically bound. Compounds were screened at 1 μM or lower, using 1% DMSO as vehicle. Biochemical assay results are presented as the percent inhibition of specific binding in Table 4.
# [5] = target: T4, human recombinant serotonin (5-Hydroxytryptamine) 5-HT5A receptor (Homo sapiens, UniProt P47898); test: Serotonin 5-HT5A radioligand binding ([3H]LSD); conditions: 0.1 μM ligand concentration
# T4 construct: expressed in transfected cells; host or cells: Chinese hamster ovary (CHO-K1) cells
# T4 sequence (P47898 whole entry): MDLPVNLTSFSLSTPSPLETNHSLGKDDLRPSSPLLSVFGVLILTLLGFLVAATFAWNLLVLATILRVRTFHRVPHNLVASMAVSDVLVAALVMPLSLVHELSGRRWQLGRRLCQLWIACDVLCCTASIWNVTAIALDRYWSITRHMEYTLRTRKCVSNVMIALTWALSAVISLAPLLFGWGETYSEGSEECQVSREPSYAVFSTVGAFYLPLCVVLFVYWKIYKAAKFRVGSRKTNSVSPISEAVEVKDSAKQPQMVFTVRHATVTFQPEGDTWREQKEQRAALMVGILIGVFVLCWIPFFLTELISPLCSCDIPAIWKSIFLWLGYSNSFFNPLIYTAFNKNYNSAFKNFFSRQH
# Method: Compounds of the invention were incubated with 1.7 nM [^3H]Lysergic acid diethylamide (LSD) for 60 min at 37° C. […] Receptor proteins were filtered and washed, the filters were then counted to determine [^3H]LSD specifically bound. Compounds were screened at 1 μM or lower, using 1% DMSO as vehicle. Biochemical assay results are presented as the percent inhibition of specific binding in Table 4.
# Chain of human recombinant histamine H1 receptor (P35367 whole entry): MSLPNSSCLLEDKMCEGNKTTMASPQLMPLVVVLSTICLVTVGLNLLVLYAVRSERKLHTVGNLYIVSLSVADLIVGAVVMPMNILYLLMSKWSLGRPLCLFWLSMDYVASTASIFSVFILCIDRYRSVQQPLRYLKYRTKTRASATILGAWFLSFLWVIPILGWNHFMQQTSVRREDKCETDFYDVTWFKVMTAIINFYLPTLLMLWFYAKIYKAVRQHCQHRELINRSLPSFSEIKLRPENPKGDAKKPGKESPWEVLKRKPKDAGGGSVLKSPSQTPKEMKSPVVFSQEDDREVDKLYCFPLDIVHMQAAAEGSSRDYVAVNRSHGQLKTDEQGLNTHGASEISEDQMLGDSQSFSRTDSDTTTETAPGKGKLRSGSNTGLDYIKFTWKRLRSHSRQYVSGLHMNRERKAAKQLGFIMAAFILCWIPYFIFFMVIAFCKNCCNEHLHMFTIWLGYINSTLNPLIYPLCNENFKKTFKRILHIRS
structure (smiles),measurement,setting,value
"Fc1ccc(CCn2c3c(c4cc(Cl)ccc42)C2CCCN2CC3)cc1 (centres unmarked) [Compound 1, 7-(4-fluorophenethyl)-10-chloro-2,3,5,6,7,11c-hexahydro-1H-indolizino[7,8-b]indole]",inhibition at 1 µM,[1],-2%
same,Percent Inhibition of ligand binding Adrenergic α1D,[2]; 1 μM ligand conc.,15%
same,Percent Inhibition of ligand binding Serotonin 5-HT2C,[3]; 1 μM ligand concentration,44%
same,Percent Inhibition of ligand binding Serotonin 5-HT6,[4]; 1 μM ligand concentration,19%
"Fc1ccc(CCn2c3c(c4cc(Cl)ccc42)CN2CCCC2C3)cc1 (centres unmarked) [Compound 2, 10-(4-fluorophenethyl)-7-chloro-2,3,5,10,11,11a-hexahydro-1H-indolizino[7,6-b]indole]",inhibition at 1 µM,[1],9%
same,Percent Inhibition of ligand binding Adrenergic α1D,[2]; 1 μM ligand conc.,23%
same,Percent Inhibition of ligand binding Serotonin 5-HT2C,[3]; 1 μM ligand concentration,53%
same,Percent Inhibition of ligand binding Serotonin 5-HT6,[4]; 1 μM ligand concentration,19%
"C/C(=C\n1c2c(c3cc(C)ccc31)C1CCCN1CC2)c1ccc(C)nc1 (centres unmarked) [Compound 32, (E)-10-methyl-7-(2-(6-methylpyridin-3-yl)prop-1-enyl)-2,3,5,6,7,11c-hexahydro-1H-indolizino[7,8-b]indole]",Percent Inhibition of ligand binding Serotonin 5-HT5A,[5],24%
same,inhibition at 0.1 µM,[1],1%
same,Percent Inhibition of ligand binding Serotonin 5-HT2C,[3]; 0.1 μM ligand concentration,26%
same,Percent Inhibition of ligand binding Serotonin 5-HT6,[4]; 0.1 μM ligand concentration,25%
"Cc1cnc2c(c1)c1c(n2CCc2ccc(C)nc2)CCN2CCCC12 (centres unmarked) [Compound 33, 10-methyl-7-(2-(6-methylpyridin-3-yl)ethyl)-2,3,5,6,7,1c-hexahydro-1H-pyrido[3′,2′:4,5]pyrrolo[2,3-g]indolizine]",Percent Inhibition of ligand binding Serotonin 5-HT5A,[5],0%
same,inhibition at 0.1 µM,[1],73%
same,Percent Inhibition of ligand binding Serotonin 5-HT2C,[3]; 0.1 μM ligand concentration,13%
same,Percent Inhibition of ligand binding Serotonin 5-HT6,[4]; 0.1 μM ligand concentration,20%
"Cc1ccc(CCn2c3c(c4cccnc42)C2CCCN2CC3)cn1 (centres unmarked) [Compound 34, 7-(2-(6-methylpyridin-3-yl)ethyl)-2,3,5,6,7,1c-hexahydro-1H-pyrido[3′,2′:4,5]pyrrolo[2,3-g]indolizine]",Percent Inhibition of ligand binding Serotonin 5-HT5A,[5],6%
same,inhibition at 0.1 µM,[1],22%
same,Percent Inhibition of ligand binding Serotonin 5-HT2C,[3]; 0.1 μM ligand concentration,7%
same,Percent Inhibition of ligand binding Serotonin 5-HT6,[4]; 0.1 μM ligand concentration,5%
"Cc1ccc(CCn2c3c(c4cccnc42)CN2CCCC2C3)cn1 (centres unmarked) [Compound 35, 11-(2-(6-methylpyridin-3-yl)ethyl)-7,8,9,9a,10,11-hexahydro-5H-pyrido[3′,2′:4,5]pyrrolo[3,2-f]indolizine]",Percent Inhibition of ligand binding Serotonin 5-HT5A,[5],10%
same,inhibition at 0.1 µM,[1],50%
same,Percent Inhibition of ligand binding Serotonin 5-HT2C,[3]; 0.1 μM ligand concentration,15%
same,Percent Inhibition of ligand binding Serotonin 5-HT6,[4]; 0.1 μM ligand concentration,−3%
"Cc1cnc2c(c1)c1c(n2CCc2ccc(C)nc2)CC2CCCN2C1 (centres unmarked) [Compound 36, 3-methyl-11-(2-(6-methylpyridin-3-yl)ethyl)-7,8,9,9a,10,11-hexahydro-5H-pyrido[3′,2′:4,5]pyrrolo[3,2-f]indolizine]",Percent Inhibition of ligand binding Serotonin 5-HT5A,[5],25%
same,inhibition at 0.1 µM,[1],96%
same,Percent Inhibition of ligand binding Serotonin 5-HT2C,[3]; 0.1 μM ligand concentration,19%
same,Percent Inhibition of ligand binding Serotonin 5-HT6,[4]; 0.1 μM ligand concentration,34%
"O=C(Cn1c2c(c3cccnc31)CN1CCCC1C2)N1CCCCC1 (centres unmarked) [Compound 37, 1-(piperidin-1-yl)-2-(8,9,9a,10-tetrahydro-5H-pyrido[3′,2′:4,5]pyrrolo[3,2-f]indolizin-11(7H)-yl)ethanone]",Percent Inhibition of ligand binding Serotonin 5-HT5A,[5],8%
same,inhibition at 0.1 µM,[1],6%
same,Percent Inhibition of ligand binding Adrenergic α1D,[2]; 0.1 μM ligand conc.,6%
same,Percent Inhibition of ligand binding Serotonin 5-HT2C,[3]; 0.1 μM ligand concentration,9%
same,Percent Inhibition of ligand binding Serotonin 5-HT6,[4]; 0.1 μM ligand concentration,−9%
"O=C(Cn1c2c(c3cccnc31)C1CCCN1CC2)N1CCCCC1 (centres unmarked) [Compound 38, 1-(piperidin-1-yl)-2-(2,3,5,6-tetrahydro-1H-pyrido[3′,2′:4,5]pyrrolo[2,3-g]indolizin-7(11cH)-yl)ethanone]",Percent Inhibition of ligand binding Serotonin 5-HT5A,[5],8%
same,inhibition at 0.1 µM,[1],5%
same,Percent Inhibition of ligand binding Adrenergic α1D,[2]; 0.1 μM ligand conc.,4%
same,Percent Inhibition of ligand binding Serotonin 5-HT2C,[3]; 0.1 μM ligand concentration,16%
same,Percent Inhibition of ligand binding Serotonin 5-HT6,[4]; 0.1 μM ligand concentration,−8%
